Legend:
[1] = system: Friedreich's ataxia patients; assay: Phase I/II double blind, comparator-controlled trial: safety and tolerability; type: in vivo, human; conditions: for Safety and tolerability: oral, 1.8 or 9.0 g/day, FRDA patients
Protocol: A phase I/II double blind, comparator-controlled trial with 2 doses of 11,11-D2-linoleic acid ethyl ester in Friedreich's ataxia patients (9 subjects in each cohort) was conducted. Subjects were randomized 2:1 to receive either 11,11-D2-linoleic acid ethyl ester (1.8 or 9.0 g/day), or a matching dose of non-deuterated ethyl linoleate as comparator for 28 days.
(§1) The primary study objectives were to evaluate the safety and tolerability of orally administered 11,11-D2-linoleic acid ethyl ester. Additional study objectives included identifying the PK of 11,11-D2-linoleic acid ethyl ester following single and multiple oral dose administration and establishing an optimum dose of 11,11-D2-linoleic acid ethyl ester. Additional clinical testing consisted of the Friedreich's Ataxia Rating Scale (FARS)-Neurological point (FARS-Neuro), the timed 25-foot walk (T25FW) with an electronic sensor to measure multiaxis components of motion during the study, and cardiopulmonary exercise testing (CPET). The CPET was performed on an electronically braked cycle ergometer (Lode Corival, Groningen, The Netherlands). The protocol included: 5 minutes of rest; 3 minutes of an unloaded cycling warm-up; a progressive protocol with increased workload each minute (5-25 watts based on estimated functional capacity); 2 minutes of an unloaded cycling recovery; and 10 minutes of passive recovery. Heart rate (HR), blood pressure (BP), ratings of perceived exertion (RPE), pulse oximetry, and expired gases were monitored in accord with standard exercise testing guidelines. Scc Pescatello et al., Thompson P. ACSM's Guidelines for Exercise Testing and Prescription. Baltimore, MD: Wolters Kluwer; 2014:114-141. Heart rate was measured by electrocardiogra (Pulse Biomedical, King of Prussia, PA), BP was determined by auscultation, RPE was estimated using the standard 6 to 20 scale, and expired gases were collected through a silicone rubber mask (Hans Rudolph, Shawnee, KS) and analyzed continuously using a metabolic cart (Parvomedics, AQ5 Sandy, UT) Vacumetrics (Ventura, CA). Endpoints of interest were peak oxygen consumption (VO2 peak) and peak workload. All other variables were primarily assessed to monitor patient safety and progress during the exercise trial.
The study included male or female participants, aged 18 to 50 years, with a FRDA onset at equal or less than 25 years of age, homozygosity for GAA repeat expansions in FXN, and FARS-Neuro range of 20 to 90 points. Participants were ambulatory (with or without assistive device), capable of performing other assessments/evaluations, with a body mass index (BMI) equal or less than 34 kg/m^2. Subjects were agreeable to dietary restriction coaching from a diet counselor to lower PUFA dietary intake, for maximal incorporation of 11,11-D2-linoleic acid ethyl ester. Sample size was selected to ensure 12 fully evaluable patients for active treatment and 6 patients for the comparator treatment. It was not powered, but considered adequate for a first-in-human trial of 11,11-D2-linoleic acid ethyl ester.
A randomization schedule was generated before the first dosing period by Agility Clinical, Inc. (Carlsbad, CA) that followed their established standard operating procedures regarding generation, security, and distribution of the randomization scheme. Patients who provided informed consent and met all enrollment criteria were randomized into the study. In order to randomize a patient, the site contacted the unblinded statistician at Agility, Inc to identify which kit should be provided to the patient.
Patients were randomly assigned to receive one of two treatments (11,11,D2-linoleic acid ethyl ester or comparator) following a 2:1 ratio, respectively. The study sponsor, investigators, research pharmacy, and patients were blinded to the subject's treatment. […]

[2] = Plasma PK by LC-MS (D2-LA, LA, D2-AA) in the phase I/II trial
Protocol: (§2) PK samples were obtained predose and at 0.5, 1, 1.5, 2, 4, 6, 8, 12, 16, and 24 hours following the first dose and 14, 28, 29, 30, and 31 days following enrollment. The samples taken on Days 29-31 represent Isotopically modified polyunsaturated fatty acid, ester, thioester, amide, or other prodrug thereof (e.g., 11,11,D2-linoleic acid ethyl ester) washout levels. D2-LA, linoleic acid (LA), deuterated arachidonic acid (D2-AA), and arachidonic acid (ARA) concentrations were measured in the samples.
(§3) Plasma concentrations of 11,11-D2-linoleic acid ethyl ester (combined free acid form and ester form) and non-deuterated analogs were determined by liquid chromatography and mass spectrometry (LCMS). Blood was collected in K2EDTA anticoagulant tubes, centrifuged to obtain plasma and red blood cells (RBCs), and frozen until analyzed. The samples were hydrolyzed to free fatty acids and analyzed by high performance LC-MS by Good Laboratory Practice validated methods. Low-intensity D2 and high-intensity H2 signals were measured with high accuracy at Ricerca Biosciences, using an AB SCIEX 6500 tandem-quadrupole MS. The 13C2 isotopomer signal was used as a calibration standard for 11,11,D2-linoleic acid ethyl ester; a polydeuterated internal standard was utilized. The enzymatic elongation/desaturation metabolite, 13,13-D2-arachidonic acid (D2-AA), was also measured, in plasma and red blood cells (RBCs).

[3] = Red blood cell (RBC) concentrations by LC-MS in the phase I/II trial; type: in vivo, human
Protocol: as §2, §3
The ability of 11,11-D2-linoleic acid ethyl ester to enter the cellular membrane compartment was assessed by measuring 11,11-D2-linoleic acid ethyl ester and LA concentration in RBCs during the 28-day period.

[4] = system: Friedreich's ataxia patients; assay: Cardiopulmonary exercise testing (CPET): peak workload, VO2max; type: in vivo, human; conditions: for Median change from baseline in peak oxygen consumption (VO2max): baseline to day 28, P=0.116
Source text: as §1
Four protocol-defined outcomes (peak workload, VO2max, FARS-Neuro, and T25FW) were examined to explore for possible endpoints for future studies in FRDA. Nonparametric statistics were used to compare the results of those receiving 11,11-D2-linoleic acid ethyl ester to comparator. A modified intention-to-treat (mITT) population was used for the VO2max and peak workload testing analysis because 2 subjects were unable to complete the exercise test. One subject was unable to establish required pedal cadence, and the test was terminated at the conclusion of the warm-up at baseline and day 27 and 1 subject had to stop the day 27 testing because the subject's knees were hitting together and the subject was unable to maintain the RPM. […] After Bonferroni adjustment for testing the four outcomes, the change in peak workload between study drug and comparator remained significant (P=0.032). This Bonferroni adjustment is standard in early-stage trials to analyze both prospective or post-hoc data from multiple exploratory efficacy endpoints in order, to determine the most suitable primary endpoint for subsequent pivotal trials.

[5] = system: Friedreich's ataxia patients; assay: Friedreich's Ataxia Rating Scale-Neurological (FARS-Neuro); type: in vivo, human
Source text: as §1, with “The protocol included: 5 minutes of rest; 3 minutes of an unloaded cycling warm-up; a progressive protocol with increased workload each minute (5-25 watts based on estimated functional capacity); 2 minutes of an unloaded cycling recovery; and 10 minutes of passive recovery.” left out, “Scc Pescatello et al., Thompson P. ACSM's Guidelines for Exercise Testing and Prescription. Baltimore, MD: Wolters Kluwer; 2014:114-141.” left out, “Endpoints of interest were peak oxygen consumption (VO2 peak) and peak workload.” left out, “trial. […]” for “trial.”

[6] = system: Friedreich's ataxia patients; assay: Timed 25-foot walk (T25FW) with electronic motion sensor or stopwatch; type: in vivo, human
Source text: as §1, with “The protocol included: 5 minutes of rest; 3 minutes of an unloaded cycling warm-up; a progressive protocol with increased workload each minute (5-25 watts based on estimated functional capacity); 2 minutes of an unloaded cycling recovery; and 10 minutes of passive recovery.” left out, “Scc Pescatello et al., Thompson P. ACSM's Guidelines for Exercise Testing and Prescription. Baltimore, MD: Wolters Kluwer; 2014:114-141.” left out, “Endpoints of interest were peak oxygen consumption (VO2 peak) and peak workload.” left out, “trial. […]” for “trial.”

[7] = drug group, cohort 2 (4.5 g BID), 28 days

[2H]C([2H])(/C=C\CCCCC)/C=C\CCCCCCCC(=O)OCC [11,11-D2-linoleic acid ethyl ester]
Diarrhea assessed as "possibly related to study drug" [1, 7]: 3 subjects
Diarrhea assessed as "probably related to study drug" [1, 7]: 1 subject
Subjects who discontinued the study because of steatorrhea ([1]; high-dose group (cohort 2), BMI 15.4, within the first week): One
Safety and tolerability ([1]; 28 days): safe and tolerable
Safety and tolerability ([1]; 28 days, listed as 11,11,D2-linoleic acid ethyl ester): well tolerated
Increase of day 28 24-hour AUC when the daily dose was increased 5-fold ([2]; human, in vivo): approximately 4 fold
Time of maximum plasma D2-LA concentration ([2]; in vivo): 8 to 10 h
Time to steady state in the plasma and in RBCs ([2]; in vivo, po): ≤ 28 days
RBC concentration of D2-LA as percentage of total LA (D2-LA plus LA), mean ([3]; cohort 1): 6.52%
RBC concentration of D2-LA as percentage of total LA (D2-LA plus LA), mean ([3]; cohort 2): 25.8%
Mean RBC concentration of D2-LA ([3]; day 28, cohort 1 (1.8 g QD)): 14.6 ± 8.7 µg/mL
Mean RBC concentration of D2-LA ([3]; day 28, cohort 2 (4.5 g BID)): 26.1 ± 19.2 µg/mL
Change in VO2max between drug and comparator ([4]; baseline to day 28): 17.5%
Median change from baseline in peak oxygen consumption (VO2max) [4]: 0.14 L/min
Change in peak workload in the drug group at study end-point ([4]; baseline to day 28, mITT): 25.7%
Improvement in peak workload from baseline to day 28 ([4]; study drug (n=10) versus comparator (n=6), mITT, P=0.008): 0.16 watts/kg
Median decrease in FARS-Neuro ([5]; baseline to day 28): 4.75 FARS points
Difference in FARS points decrease between drug and placebo groups ([5]; baseline to day 28, P=0.348 ITT): 1.95 FARS points
T25FW^−1 time, traditionally measured (by stopwatch) ([6]; P=0.88): no signal of significance
Improvement of stride speed (stride time)^−1 ([6]; electronic motion sensing device on the ankle, 25-foot timed walk, P=0.15 ITT): 7%

[2H]C([2H])(/C=C\C/C=C\C/C=C\CCCC(=O)O)/C=C\CCCCC [D2-AA, 13,13-D2-arachidonic acid]
Mean plasma concentration of D2-AA ([2]; high dose (4.5 g BID), 72-hour period after the last dose (day 28)): around 22 μg/mL
Plasma concentration of D2-AA (metabolite) ([2]; high dose, predose baseline and day 1, LOQ 1 μg/mL): below or slightly above the LOQ
Plasma concentration of D2-AA (metabolite) ([2]; low dose 11,11-D2-linoleic acid ethyl ester, day 1): below quantitation
Mean plasma concentration of D2-AA, maximum at 32 hours after the last dose ([2]; low dose (1.8 g QD), after day 28): 5530 ng/mL
Mean plasma concentration of D2-AA, maximum at 6 hours after the last dose ([2]; low dose (1.8 g QD), day 28): 3860 ng/mL

CCCCC/C=C\C/C=C\CCCCCCCC(=O)OCC [comparator, ethyl linoleate, reference compound]
Diarrhea (TEAE) ([1]; both, human, in vivo, 28 days): 1 subject
Median change from baseline in peak oxygen consumption (VO2max) [4]: -0.02 L/min
